This is an account of results in patent publication US9868746B2, “Substituted 5-aminothieno[2,3-C]pyridazine-6-carboxamide analogs as positive allosteric modulators of the muscarinic acetylcholine receptor M4” (Vanderbilt University, priority 2012, dated 2018).

Where only a bound is given, the exact number is not on record here.

The target in the assay is T1, mAChR M4 (Homo sapiens, UniProt P08173).
T1 construct: expressed in transfected cells; host or cells: CHO-K1 cells stably transfected with M4 cDNA and chimeric G-protein Gqi5
T1 sequence (P08173 1-479): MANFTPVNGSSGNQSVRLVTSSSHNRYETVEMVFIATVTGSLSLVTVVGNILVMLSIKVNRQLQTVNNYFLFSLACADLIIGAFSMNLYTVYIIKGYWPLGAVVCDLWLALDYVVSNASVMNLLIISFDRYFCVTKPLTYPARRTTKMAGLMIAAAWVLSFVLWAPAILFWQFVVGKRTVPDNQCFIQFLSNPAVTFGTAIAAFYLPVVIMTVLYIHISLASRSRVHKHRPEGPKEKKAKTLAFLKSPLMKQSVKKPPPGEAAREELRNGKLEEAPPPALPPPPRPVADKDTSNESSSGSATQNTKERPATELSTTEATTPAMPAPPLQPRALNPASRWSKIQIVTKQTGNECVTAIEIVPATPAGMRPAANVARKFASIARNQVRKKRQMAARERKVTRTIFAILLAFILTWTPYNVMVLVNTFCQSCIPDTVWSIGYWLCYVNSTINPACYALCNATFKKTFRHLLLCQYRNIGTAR
The experiment in a line: mAChR M4 cell-based functional assay (calcium mobilization, potentiation of EC20 acetylcholine response). The following applies: for Emax at 30 µM: % ACh maximum at 30 μM; for EC50: mAChR M4 cell-based functional assay, >10,000 estimated for low potency compounds without plateau, read-out: EC50.

What is called Emax is the size of the effect at its maximum, as opposed to the concentration needed. One may read the EC50 as the concentration that produces a half-maximal response. `COc1ccc(CNC(=O)c2sc3nnc(C)c(C)c3c2N)cc1Br` [Example B482]: the Emax at 30 µM was 67% and the EC50 was 87 nM.

For `Cc1nnc2sc(C(=O)N3CCC(NC(=O)c4ccc(F)c(F)c4)C3)c(N)c2c1C` (centres unmarked) [Example B217], the maximal response (Emax) at 30 µM amounted to 53% and the EC50 is 1100 nM.

Regarding `Cc1nnc2sc(C(=O)NCc3ccc4c(ccn4C)c3)c(N)c2c1C` [Example B196], the Emax at 30 µM is 69% and the EC50 was 61 nM.

Regarding `Cc1nnc2sc(C(=O)N3CCC[C@H]3C)c(N)c2c1C` [Example B382], the Emax at 30 µM is 45% and the half-maximal effective concentration (EC50) is greater than 10000 nM.

As to `Cc1nnc2sc(C(=O)N3Cc4ccccc4C3)c(N)c2c1C` [Example B280], the Emax at 30 µM was determined as 46% and the EC50 is 1700 nM.

On to `Cc1nnc2sc(C(=O)NCc3ccc(-c4cncnc4)cc3)c(N)c2c1C` [Example B462], for which the Emax at 30 µM turned out to be 65% and the EC50 is 38 nM.

For the compound `Cc1nnc2sc(C(=O)NCc3ccc(-c4cccs4)cc3)c(N)c2c1C` [Example B460], the Emax at 30 µM was 76% and the EC50 is 28 nM.

Take `COc1ccc(C2(NC(=O)c3sc4nnc(C)c(C)c4c3N)CC2)cc1` [Example B301]: the maximal effect (Emax) at 30 µM worked out at 48% and the EC50 was 6400 nM.

As for `COC1(C)CN(C(=O)c2sc3nnc(C)c(C)c3c2N)C1` [Example B292], the Emax at 30 µM stood at 62% and the concentration for a half-maximal effect (EC50) is greater than 10000 nM.

As for `COc1ccc(CNC(=O)c2sc3nnc(C)c(C)c3c2N)cc1F` [Example B90], the Emax at 30 µM amounted to 58%.

In the case of `CCCCCC(=O)N1CCC(NC(=O)c2sc3nnc(C)c(C)c3c2N)C1` (centres unmarked) [Example B232], the Emax at 30 µM was found to be 77% and the EC50 was 530 nM.

In the case of `Cc1nnc2sc(C(=O)NC3CCN(c4ccc(C(F)(F)F)cc4)C3)c(N)c2c1C` (centres unmarked) [Example B283], the Emax at 30 µM came out at 76% and the concentration for a half-maximal effect (EC50) is 180 nM.

With `Cc1nnc2sc(C(=O)NC3CCN(c4ccccc4OC(F)(F)F)C3)c(N)c2c1C` (centres unmarked) [Example B282], the Emax at 30 µM is 80% and the EC50 is 220 nM.

For `Cc1nnc2sc(C(=O)N3CC(F)(c4cccc(F)c4)C3)c(N)c2c1C` [Example B293], the Emax at 30 µM is 46% and the EC50 was 150 nM.

Take `Cc1nnc2sc(C(=O)N3C[C@@H]4C[C@@H]3CN4C(=O)Oc3ccccc3)c(N)c2c1C` [Example B270]: the Emax at 30 µM is 62% and the EC50 was greater than 10000 nM.

For the compound `COc1ncccc1-c1ccc(CNC(=O)c2sc3nnc(C)c(C)c3c2N)cc1` [Example B456], the Emax at 30 µM was found to be 68% and the EC50 was 99 nM.

Turning to `Cc1nnc2sc(C(=O)N3CCC(NC(=O)c4cccc(F)c4)C3)c(N)c2c1C` (centres unmarked) [Example B216], the Emax at 30 µM turned out to be 62% and the EC50 was greater than 10000 nM.

Consider `Cc1nnc2sc(C(=O)NC3CN(C(=O)Oc4ccc(N=[N+]=[N-])cc4)C3)c(N)c2c1C` [Example B421], for which the Emax at 30 µM was 84% and the EC50 is 15 nM.

As for `Cc1nnc2sc(C(=O)N3CCC(C4CCCCC4)C3)c(N)c2c1C` (centres unmarked) [Example B379], the Emax at 30 µM was determined as 45% and the 50% effective concentration (EC50) is 3900 nM.

For the compound `COc1ccc(C2(OC)CN(C(=O)c3sc4nnc(C)c(C)c4c3N)C2)cc1` [Example B290], the Emax at 30 µM turned out to be 45% and the EC50 is 440 nM.

Turning to `Cc1nnc2sc(C(=O)N3CC4CN(c5cccc(Br)n5)CC4C3)c(N)c2c1C` (centres unmarked) [Example B437], the Emax at 30 µM was found to be 54% and the EC50 was 98 nM.

Regarding `Cc1nnc2sc(C(=O)NCCNC(=O)C3CC3)c(N)c2c1C` [Example B367], the Emax at 30 µM is 52% and the concentration giving a half-maximal response (EC50) was greater than 10000 nM.

On to `Cc1nnc2sc(C(=O)NCc3ccc(-c4cnc5ccccc5c4)cc3)c(N)c2c1C` [Example B497], for which the Emax at 30 µM is 46% and the EC50 was 710 nM.

Turning to `Cc1nnc2sc(C(=O)N3C[C@@H]4C[C@@H]3CN4C(=O)c3ccccc3)c(N)c2c1C` [Example B263], the Emax at 30 µM was determined as 41% and the EC50 was greater than 10000 nM.

In the case of `COc1ccccc1C(=O)N1CC(NC(=O)c2sc3nnc(C)c(C)c3c2N)C1` [Example B397], the Emax at 30 µM worked out at 64% and the EC50 was 430 nM.

Take `Cc1nnc2sc(C(=O)N3CC(F)(c4ccc(-c5ccncc5)cc4)C3)c(N)c2c1C` [Example B318]: the Emax at 30 µM is 35% and the EC50 is 290 nM.

Consider `Cc1nnc2sc(C(=O)NC3CN(C(=O)C(C)(C)C)C3)c(N)c2c1C` [Example B121], for which the Emax at 30 µM amounted to 92% and the EC50 is 840 nM.

As to `COc1ccc(S(=O)(=O)N2CC(NC(=O)c3sc4nnc(C)c(C)c4c3N)C2)cc1` [Example B144], the Emax at 30 µM came out at 87% and the concentration giving a half-maximal response (EC50) was 140 nM.

For the compound `Cc1nnc2sc(C(=O)N3CCC(NC(=O)Oc4ccccc4)C3)c(N)c2c1C` (centres unmarked) [Example B205], the Emax at 30 µM was 71% and the EC50 was 570 nM.

As for `Cc1nnc2sc(C(=O)N3CC(F)(c4cccc(N=[N+]=[N-])c4)C3)c(N)c2c1C` [Example B401], the maximal effect (Emax) at 30 µM turned out to be 54% and the EC50 is 3100 nM.

On to `Cc1nnc2sc(C(=O)NCC3CCS(=O)(=O)C3)c(N)c2c1C` (centres unmarked) [Example B148], for which the Emax at 30 µM was 50% and the EC50 is greater than 10000 nM.

In the case of `Cc1nnc2sc(C(=O)NCc3c(F)ccc(F)c3Cl)c(N)c2c1C` [Example B85], the Emax at 30 µM turned out to be 58% and the EC50 is 47 nM.

As to `Cc1ccc(S(=O)(=O)N2CCCN(C(=O)c3sc4nnc(C)c(C)c4c3N)CC2)cc1` [Example B114], the Emax at 30 µM turned out to be 48% and the EC50 is 1600 nM.

For `Nc1c(C(=O)NCc2ccc3c(c2)OCO3)sc2nnccc12` [Example B22], the maximal response (Emax) at 30 µM was 63% and the EC50 was 2800 nM.

`Cc1nnc2sc(C(=O)NCc3ccc(-c4cccc5cccnc45)cc3)c(N)c2c1C` [Example B453]: the maximum response (Emax) at 30 µM was found to be 74% and the EC50 is 240 nM.

With `Cc1nnc2sc(C(=O)NCc3ccc(F)nc3)c(N)c2c1C` [Example B440], the Emax at 30 µM is 80% and the EC50 was 190 nM.

As to `COC1(CCC2OCCCO2)CN(C(=O)c2sc3nnc(C)c(C)c3c2N)C1` [Example B298], the Emax at 30 µM turned out to be 43% and the EC50 was 4300 nM.

On to `Cc1nnc2sc(C(=O)NC3CC3c3ccc(S(C)(=O)=O)cc3)c(N)c2c1C` (centres unmarked) [Example B109], for which the maximum response (Emax) at 30 µM worked out at 78% and the EC50 is 120 nM.

With `COc1c(F)cc(CNC(=O)c2sc3nnc(C)c(C)c3c2N)cc1F` [Example B313], the Emax at 30 µM was 84% and the EC50 was 18 nM.

In the case of `Cc1nnc2sc(C(=O)NC3CCCOC3)c(N)c2c1C` (centres unmarked) [Example B96], the Emax at 30 µM worked out at 64% and the EC50 is greater than 10000 nM.

Turning to `CCc1ccc(CNC(=O)c2sc3nnc(C)c(C)c3c2N)cc1` [Example B395], the Emax at 30 µM turned out to be 71% and the EC50 was 47 nM.

On to `Cc1nnc2sc(C(=O)NCc3ccc(-n4ccnc4)cc3)c(N)c2c1C` [Example B490], for which the maximal response (Emax) at 30 µM was determined as 61% and the EC50 was 20 nM.

For `CCCCCC(=O)NC1CN(C(=O)c2sc3nnc(C)c(C)c3c2N)C1` [Example B175], the maximum response (Emax) at 30 µM was 52% and the EC50 was greater than 10000 nM.

`CCS(=O)(=O)c1ccc(CNC(=O)c2sc3nnc(C)c(C)c3c2N)cc1` [Example B49]: the Emax at 30 µM amounted to 64% and the EC50 is 48 nM.

With `Cc1nnc2sc(C(=O)NC3CCN(C(=O)c4c(F)cccc4F)C3)c(N)c2c1C` (centres unmarked) [Example B243], the Emax at 30 µM worked out at 78% and the EC50 is 590 nM.

For the compound `Cc1nnc2sc(C(=O)N3CC(NC(=O)C4CC4c4ccccc4)C3)c(N)c2c1C` (centres unmarked) [Example B182], the Emax at 30 µM was 59% and the EC50 is 2300 nM.

As to `Cc1nnc2sc(C(=O)N3CCC(NC(=O)N4CCOCC4)C3)c(N)c2c1C` (centres unmarked) [Example B201], the maximal response (Emax) at 30 µM was found to be 56% and the EC50 was greater than 10000 nM.

On to `Cc1nnc2sc(C(=O)NCc3ccccc3)c(N)c2c1C` [Example B9], for which the Emax at 30 µM came to 97% and the EC50 was 170 nM.

For the compound `COc1ccc(C2CC2NC(=O)c2sc3nnc4c(c3c2N)CCCC4)cc1` (centres unmarked) [Example B55], the Emax at 30 µM was 48% and the EC50 was 47 nM.

Consider `Cc1nnc2sc(C(=O)N3CCC(NC(=O)C4CC4)C3)c(N)c2c1C` (centres unmarked) [Example B236], for which the Emax at 30 µM was 66% and the EC50 is 5000 nM.

Consider `Cc1nnc2sc(C(=O)N3CC(F)(c4ccccn4)C3)c(N)c2c1C` [Example B303], for which the Emax at 30 µM was 57% and the EC50 was 500 nM.

Turning to `COc1ccc(OC(=O)N2CC(NC(=O)c3sc4nnc(C)c(C)c4c3N)C2)cc1` [Example B334], the Emax at 30 µM amounted to 69% and the half-maximal effective concentration (EC50) was 13 nM.

For `Cc1ccc(S(=O)(=O)N2CCC(NC(=O)c3sc4nnc(C)c(C)c4c3N)C2)s1` (centres unmarked) [Example B215], the maximal response (Emax) at 30 µM was determined as 75% and the concentration giving a half-maximal response (EC50) is 340 nM.

Take `Cc1nnc2sc(C(=O)NCc3ccncc3)c(N)c2c1C` [Example B14]: the Emax at 30 µM was 100% and the concentration giving a half-maximal response (EC50) was 320 nM.
